Experimental data from patent US20060167229A1, “Biologically active peptide conjugates” (priority 2002, published 2006).
“Also recorded” adds a separate entry of the source. Marks after values point to notes of the source that are not given here. Ends that are not written are not given here.

Columns and labels:
Type in all cases: in vivo, BALB/c mice
NK cell = NK cell cytotoxicity activity test (spleen cells of treated mice against YAC-1 target cells, MTT); details: for NK cell cytotoxic activity, X ± SD (%): healthy mice; for effect on the cytotoxic activity of NK cells (summary): statistically significant difference from saline in any of the dosage groups 0.5-500 μg/kg/day
How it was run: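 Mice (10 per group) dosed i.p. once daily for 15 days in saline; spleen cells harvested the next day. Splenocytes (4×10^6/ml) co-cultured with YAC-1 targets (1×10^5/ml), in triplicate per mouse. Viability by MTT (1 mg/ml, 4 h, 37 °C), read at OD570 against 630 nm.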

anti-SRBC antibody = test: Sheep Red Blood Cell (SRBC) hemolysis test, antibody formation; details: for anti-SRBC antibody formation, X ± SD (Unit): healthy mice, SRBC day 12 (IFN-γ, IL-2 3×10^5 IU/kg/day), saline 32 ± 7; for effect on the synthesis of anti-SRBC antibody upon the antigenic challenge (summary): statistically significant difference from saline in any of the dosage groups 0.5-500 μg/kg/day
How it was run: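 Mice immunized intraperitoneally with 0.2 ml SRBC on day 12; serum taken on day 16, diluted 500-fold. Serum incubated with 2% SRBC and guinea pig complement 10 min at 37° C; released haemoglobin read at OD540 with Drabkin solution. Serum index = (sample OD540 ÷ reference OD540) × 500.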

mononuclear phagocyte = test: Carbon particle clearance test, phagocytosis function; design: key to X ± SD (phagocytotic index): α = cube root of K × (body weight ÷ liver+spleen weight); details: for X ± SD (phagocytotic index): healthy mice, saline 5.1 ± 0.6; for effect on the phagocytotic activity of mononuclear phagocyte (summary): statistically significant difference from saline in any of the dosage groups 0.5-500 μg/kg/day
How it was run: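 Clearance index K came from OD680 of blood sampled 1 and 5 min after tail-vein India ink ([…], diluted 5×), given on day 16. Phagocytic index α combined K with liver, spleen […] weights taken the same day.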

thymus gland = test: Immunity organ weight test, thymus gland index; details: for weight of thymus gland (thymus gland index), X ± SD (%): healthy mice, saline 0.12 ± 0.02; for effect on the weight of the thymus gland (summary): statistically significant difference from saline in any of the dosage groups 0.5-500 μg/kg/day
Description: One day after the last test substance administration (day 16), the liver, spleen, and thymus gland were separated and blotted dry with filter paper and weighed. The phagocytosis index α was calculated as below: α=(^3√{square root over ( )}K)(W÷WLS)
Thymus gland index (%)=(thymus weight/body weight)×100%

[1] = peptide 50 μg/kg/day i.p. 15 days (IFN-γ, IL-2 3×10^5 IU/kg/day), saline 56 ± 8
[2] = peptide 0.5 μg/kg/day i.p. 15 days
[3] = peptide 5 μg/kg/day i.p. 15 days
[4] = peptide 50 μg/kg/day i.p. 15 days
[5] = peptide 500 μg/kg/day i.p. 15 days
[6] = peptide 5 μg/kg/day i.p. 15 days (IFN-γ, IL-2 3×10^5 IU/kg/day)
[7] = peptide 500 μg/kg/day i.p. 15 days (IFN-γ, IL-2 3×10^5 IU/kg/day)
[8] = peptide 500 μg/kg/day i.p. 15 days (IFN-γ, IL-2 3×10^5 IU/kg/day), saline 63 ± 9
[9] = peptide 50 μg/kg/day i.p. 15 days (IFN-γ, IL-2 3×10^5 IU/kg/day)
[10] = peptide 0.5 μg/kg/day i.p. 15 days (IFN-γ, IL-2 3×10^5 IU/kg/day), saline 58 ± 7
[11] = peptide 5 μg/kg/day i.p. 15 days (IFN-γ, IL-2 3×10^5 IU/kg/day), saline 60 ± 9
[12] = peptide 0.5 μg/kg/day i.p. 15 days (IFN-γ, IL-2 3×10^5 IU/kg/day)

Substance | NK cell cytotoxic activity, X ± SD (%) (NK cell; [1]) | effect on the cytotoxic activity of NK cells (summary) (NK cell) | anti-SRBC antibody formation, X ± SD (Unit) (anti-SRBC antibody; [2]) | anti-SRBC antibody formation, X ± SD (Unit) (anti-SRBC antibody; [3]) | anti-SRBC antibody formation, X ± SD (Unit) (anti-SRBC antibody; [4]) | anti-SRBC antibody formation, X ± SD (Unit) (anti-SRBC antibody; [5]) | X ± SD (phagocytotic index) (mononuclear phagocyte; [6]) | X ± SD (phagocytotic index) (mononuclear phagocyte; [7]) | effect on the phagocytotic activity of mononuclear phagocyte (summary) (mononuclear phagocyte) | NK cell cytotoxic activity, X ± SD (%) (NK cell; [8]) | effect on the synthesis of anti-SRBC antibody upon the antigenic challenge (summary) (anti-SRBC antibody) | weight of thymus gland (thymus gland index), X ± SD (%) (thymus gland; [6]) | weight of thymus gland (thymus gland index), X ± SD (%) (thymus gland; [9]) | weight of thymus gland (thymus gland index), X ± SD (%) (thymus gland; [7]) | effect on the weight of the thymus gland (summary) (thymus gland) | NK cell cytotoxic activity, X ± SD (%) (NK cell; [10]) | NK cell cytotoxic activity, X ± SD (%) (NK cell; [11]) | weight of thymus gland (thymus gland index), X ± SD (%) (thymus gland; [12]) | X ± SD (phagocytotic index) (mononuclear phagocyte; [9])
FNFVPP [CMS003] | 85 ± 6 | increase | 2 ± 1 | 91 ± 24*^@ Unit | 52 ± 11 Unit | 96 ± 18*^@ Unit | 6.9 ± 0.9*^ | 6.6 ± 0.7 | enhance | – | – | – | – | – | – | – | – | – | –
IGMESAGIHETTY [CMS016] | – | increase | – | 93 ± 32*^@ Unit | – | 143 ± 38*^@^ Unit | 6.9 ± 0.8*^ | – | enhance | 91 ± 7*^@^ % | enhance | 0.22 ± 0.06 % | 0.20 ± 0.03*^@^ % | 0.18 ± 0.05 % | increase | – | – | – | –
KAVGHLDDLPGAL [CMS008] | – | – | – | 97 ± 26*^@ Unit | – | 82 ± 15*^@ Unit | 6.4 ± 0.5 | 6.5 ± 1.2 | enhance | – | enhance | – | 0.20 ± 0.04*^@^ % | 0.21 ± 0.03*^@^ % | increase | 46 ± 12 | 92 ± 4*^@^ % | 0.22 ± 0.07*^ % | –
LGMQACGIHETTY [CMS012] | 40 ± 9 | – | – | 81 ± 22*^@ Unit | 50 ± 14 Unit | 141 ± 21*^@^ Unit | – | – | – | – | enhance | 0.27 ± 0.06*^@^ % | 0.26 ± 0.02*^@^ % | – | increase | 77 ± 6 | 85 ± 7 % | 0.22 ± 0.06*^ % | –
LRVAPQQHPTL [CMS009] | – | increase | 2 ± 1 | 79 ± 18*^@ Unit | 13 ± 5 Unit | 113 ± 22*^@^ Unit | 6.9 ± 0.9*^ | – | enhance | – | – | – | – | – | – | – | 92 ± 6*^@^ % | – | –
PTTKTYFPHF [CMS001] | 85 ± 10 | increase | – | 110 ± 24*^@ Unit | – | – | – | – | – | – | enhance | 0.22 ± 0.05 % | – | – | increase | – | – | – | –
Phe Gln Gln Gln (FQQQ; printed: Phe Gln Gln Gln) [CMS032] | – | increase | – | 157 ± 37*^@^ Unit | 131 ± 24*^@^ Unit | – | – | – | – | 87 ± 5 % | enhance | 0.29 ± 0.04*^@^ % | 0.27 ± 0.03*^@^ % | 0.25 ± 0.03*^@^ % | increase | – | – | 0.21 ± 0.06 % | –
Phe Val Asn Asp (FVND; listed as Sus scrofa) [CMS035] | 72 ± 9 | increase | – | 176 ± 39*^@^ Unit | 97 ± 10*^@^ Unit | 88 ± 16*^@ Unit | 6.9 ± 0.9*^ | – | enhance | 90 ± 10 % | enhance | 0.21 ± 0.04 % | – | 0.21 ± 0.03*^@^ % | increase | 76 ± 10 | – | – | –
Pro Gln Asn Phe (PQNF; printed: Pro Gln Asn Phe) [CMS034] | – | increase | 20 ± 2 | 172 ± 37*^@^ Unit | 136 ± 11*^@^ Unit | – | – | – | – | 85 ± 9 % | enhance; also recorded: inhibit | 0.27 ± 0.06*^@^ % | 0.19 ± 0.04*^ % | 0.20 ± 0.05*^ % | increase | – | 90 ± 5 % | – | –
Pro Ser Ile Vat Gly Arg Pro Arg His Gln Gly Val Met (PSIVGRPRHQGVM; listed as Sus scrofa) [CMS015] | 78 ± 8 | increase | 13 ± 4 | 94 ± 37*^@ Unit | 54 ± 9*^@ Unit | 136 ± 22*^@^ Unit | – | – | – | – | enhance; also recorded: inhibit | 0.20 ± 0.08 % | – | – | increase | – | – | – | –
RVAPQQHPTL [CMS011] | – | increase | 5 ± 3 | 115 ± 27*^@^ Unit | 67 ± 9*^@ Unit | 188 ± 16*^@^ Unit | 6.4 ± 1.1 | – | enhance | – | – | 0.22 ± 0.04 % | – | – | – | 79 ± 3 | 76 ± 10 % | – | –
VGMGQKDSY | – | – | 12 ± 3 | 118 ± 20*^@^ Unit | – | 91 ± 26*^@ Unit | 6.8 ± 0.6*^ | – | enhance | – | – | 0.24 ± 0.02*^@^ % | 0.20 ± 0.03*^@^ % | 0.19 ± 0.02 % | increase | – | – | – | 6.7 ± 0.9*^
